In patent US20090163528A1, “Pharmaceutical composition having analgesic effects” (priority 2004, published 2009):
Counter-ions that a name gives are not always drawn. Like-named read-outs stand apart in the source and are kept apart here.

Experiments:
Kunming breed mice [1] = type: in vivo
Kunming breed mice [2] = assay: Body twisting test, mixtures of fuziline and benzoylmesaconitine in different proportions (Test 7); type: in vivo; conditions: benzoylmesaconitine 100 mg/kg stomach perfusion
mice [3] = assay: Toxicity test of the active medical ingredients (previous acute toxicology); conditions: mouse, in vivo
mice [4] = type: in vivo; conditions: Table 5
Description: The division of animal groups, content of test drugs, dose and administration is the same as those in the body twisting test, while the contra positive is pethidine hydrochloride only.
In the course of the test, the mice show up reactions of hindleg sucking, hindleg kicking, skipping, etc; take the reaction of hindleg sucking as the pain indicator.

Kunming breed mice [5] = type: in vivo; conditions: mesaconitine 0.5 mg/kg stomach perfusion
[6] = Toxicity test of the active medical ingredients (previous acute toxicology); conditions: mouse, in vivo
Kunming breed mice [7] = assay: Body twisting test, mixtures of fuziline and hypaconitine in different proportions (Test 6); type: in vivo; conditions: hypaconitine 1 mg/kg stomach perfusion
[8] = Table 3, 50 mg/kg stomach perfusion
[9] = Table 3, 100 mg/kg stomach perfusion
[10] = Table 3, 200 mg/kg stomach perfusion
[11] = Table 3, 400 mg/kg stomach perfusion
[12] = Table 3, 0.25 mg/kg stomach perfusion
[13] = Table 3, 0.5 mg/kg stomach perfusion
[14] = Table 3, 1 mg/kg stomach perfusion
[15] = Table 3, 2 mg/kg stomach perfusion
[16] = Table 3, 4 mg/kg stomach perfusion

With `COC[C@]12CN(C)[C@H]3C4C(OC)C1C3(C(OC)CC2O)C1C[C@@]2(O)C(OC(=O)c3ccccc3)C1[C@]4(O)[C@@H](O)C2OC` (stereo partly shown) [Benzoylmesaconitine, benzoylmesaconitine] the “Body twisting number ( χ ± SD)” value (Kunming breed mice [1]; [8]) was 27.2 ± 12.2, the Pain suppression rate (Kunming breed mice [1]; [8]) was 20.70% and the “Body twisting number ( χ ± SD)” value (Kunming breed mice [1]; [9]) was 27.4 ± 15.9. For the same compound, the Pain suppression rate (Kunming breed mice [1]; [9]) was 20.12%, the “Body twisting number ( χ ± SD)” value (Kunming breed mice [1]; [10]) was 21.0 ± 15.1 and the Pain suppression rate (Kunming breed mice [1]; [10]) was 38.78%. The “Body twisting number ( χ ± SD)” value (Kunming breed mice [1]; [11]) was 20.4 ± 12.9, the Pain suppression rate (Kunming breed mice [1]; [11]) was 40.52% and the Pain suppression rate (Kunming breed mice [2]) was 34.6%. The maximum tolerance dose (mice [3]) was 1000 mg/kg, the “Increasing rate of threshold pain after administration ( X ± SD)” value (shortened to “Increasing rate … ( X ± SD)”) (mice [4]; 200 mg/kg stomach perfusion, 15 minutes) was 22.1 ± 52.0% and the “Increasing rate … ( X ± SD)” value (mice [4]; 200 mg/kg stomach perfusion, 30 minutes) was 32.9 ± 45.1 %. The “Increasing rate … ( X ± SD)” value (mice [4]; 200 mg/kg stomach perfusion, 60 minutes) was 40.3 ± 76.4%, the “Increasing rate … ( X ± SD)” value (mice [4]; 200 mg/kg stomach perfusion, 90 minutes) was 46.0 ± 87.4% and the “Increasing rate … ( X ± SD)” value (mice [4]; 200 mg/kg stomach perfusion, 120 minutes) was 53.6 ± 93.9%. For the same compound, the “Increasing rate … ( X ± SD)” value (mice [4]; 400 mg/kg stomach perfusion, 15 minutes) was 41.3 ± 90.2%, the “Increasing rate … ( X ± SD)” value (mice [4]; 400 mg/kg stomach perfusion, 30 minutes) was 35.2 ± 57.2 % and the “Increasing rate … ( X ± SD)” value (mice [4]; 400 mg/kg stomach perfusion, 60 minutes) was 78.8 ± 104.0 %. For the same compound, the “Increasing rate … ( X ± SD)” value (mice [4]; 400 mg/kg stomach perfusion, 90 minutes) was 59.5 ± 88.5%, the “Increasing rate … ( X ± SD)” value (mice [4]; 400 mg/kg stomach perfusion, 120 minutes) was 53.7 ± 117.0% and the “Increasing rate … ( X ± SD)” value (mice [4]; benzoylmesaconitine 100 mg/kg stomach perfusion, 15 minutes) was −0.4 ± 33.8%. For the same compound, the “Increasing rate … ( X ± SD)” value (mice [4]; benzoylmesaconitine 100 mg/kg stomach perfusion, 30 minutes) was 13.7 ± 52.3%, the “Increasing rate … ( X ± SD)” value (mice [4]; benzoylmesaconitine 100 mg/kg stomach perfusion, 60 minutes) was 64.6 ± 76.7 % and the “Increasing rate … ( X ± SD)” value (mice [4]; benzoylmesaconitine 100 mg/kg stomach perfusion, 90 minutes) was 71.1 ± 104.5%. The “Increasing rate … ( X ± SD)” value (mice [4]; benzoylmesaconitine 100 mg/kg stomach perfusion, 120 minutes) was 106.2 ± 116.5%.
In the case of `COC[C@]12CN(C)[C@H]3C4C(OC)C1C3(C(OC)CC2O)C1C[C@@]2(O)C(OC(=O)c3ccccc3)C1[C@]4(OC(C)=O)[C@@H](O)C2OC` (stereo partly shown) [Mesaconitine, mesaconitine], the Pain suppression rate (Kunming breed mice [5]) is reported as 62.6%, the “Body twisting number ( χ ± SD)” value (Kunming breed mice [1]; [12]) is reported as 33.6 ± 11.5 and the Pain suppression rate (Kunming breed mice [1]; [12]) is reported as 14.50%. For the same compound, the “Body twisting number ( χ ± SD)” value (Kunming breed mice [1]; [13]) was 20.0 ± 9.6^ΔΔ, the Pain suppression rate (Kunming breed mice [1]; [13]) was 49.11% and the “Body twisting number ( χ ± SD)” value (Kunming breed mice [1]; [14]) was 21.8 ± 12.6^ΔΔ. The Pain suppression rate (Kunming breed mice [1]; [14]) was 44.53%, the “Body twisting number ( χ ± SD)” value (Kunming breed mice [1]; [15]) was 19.3 ± 10.0^ΔΔ and the Pain suppression rate (Kunming breed mice [1]; [15]) was 50.89%. For the same compound, the LD50 ([6]; LD50) was 6.41 mg/kg, the “Increasing rate … ( X ± SD)” value (mice [4]; 12.5 mg/kg stomach perfusion, 15 minutes) was 12.1 ± 45.0% and the “Increasing rate … ( X ± SD)” value (mice [4]; 12.5 mg/kg stomach perfusion, 30 minutes) was −6.3 ± 31.4%. The “Increasing rate … ( X ± SD)” value (mice [4]; 12.5 mg/kg stomach perfusion, 60 minutes) was −0.5 ± 38.7%, the “Increasing rate … ( X ± SD)” value (mice [4]; 12.5 mg/kg stomach perfusion, 90 minutes) was −11.3 ± 34.2% and the “Increasing rate … ( X ± SD)” value (mice [4]; 12.5 mg/kg stomach perfusion, 120 minutes) was 11.1 ± 38.8%. The “Increasing rate … ( X ± SD)” value (mice [4]; 25 mg/kg stomach perfusion, 15 minutes) was 39.7 ± 76.6%, the “Increasing rate … ( X ± SD)” value (mice [4]; 25 mg/kg stomach perfusion, 30 minutes) was 59.2 ± 146.9% and the “Increasing rate … ( X ± SD)” value (mice [4]; 25 mg/kg stomach perfusion, 60 minutes) was 37.2 ± 88.5%. The “Increasing rate … ( X ± SD)” value (mice [4]; 25 mg/kg stomach perfusion, 90 minutes) was 61.3 ± 82.1^Δ %, the “Increasing rate … ( X ± SD)” value (mice [4]; 25 mg/kg stomach perfusion, 120 minutes) was 80.7 ± 100.1% and the “Increasing rate … ( X ± SD)” value (mice [4]; 50 mg/kg stomach perfusion, 15 minutes) was 21.4 ± 42.9%. The “Increasing rate … ( X ± SD)” value (mice [4]; 50 mg/kg stomach perfusion, 30 minutes) was 14.4 ± 34.7%, the “Increasing rate … ( X ± SD)” value (mice [4]; 50 mg/kg stomach perfusion, 60 minutes) was 7.9 ± 37.8% and the “Increasing rate … ( X ± SD)” value (mice [4]; 50 mg/kg stomach perfusion, 90 minutes) was 30.4 ± 44.1^Δ %. The “Increasing rate … ( X ± SD)” value (mice [4]; 50 mg/kg stomach perfusion, 120 minutes) was 36.0 ± 42.6%, the “Increasing rate … ( X ± SD)” value (mice [4]; mesaconitine 100 mg/kg stomach perfusion, 15 minutes) was 124.8 ± 165.4% and the “Increasing rate … ( X ± SD)” value (mice [4]; mesaconitine 100 mg/kg stomach perfusion, 30 minutes) was 97.7 ± 184.6%. The “Increasing rate … ( X ± SD)” value (mice [4]; mesaconitine 100 mg/kg stomach perfusion, 60 minutes) was 64.3 ± 149.5%, the “Increasing rate … ( X ± SD)” value (mice [4]; mesaconitine 100 mg/kg stomach perfusion, 90 minutes) was 108.3 ± 105.0^ΔΔ % and the “Increasing rate … ( X ± SD)” value (mice [4]; mesaconitine 100 mg/kg stomach perfusion, 120 minutes) was 49.0 ± 52.9%.
For `COC[C@@]12CCC(OC)C34C5C[C@@]6(O)C(OC(=O)c7ccccc7)C5[C@@](OC(C)=O)(C(C(OC)C31)[C@@H]4N(C)C2)[C@@H](O)C6OC` (stereo partly shown) [Hypaconitine, hypaconitine], the “Body twisting number ( χ ± SD)” value (Kunming breed mice [1]; [13]) was 27.6 ± 11.5, the Pain suppression rate (Kunming breed mice [1]; [13]) was 29.77% and the “Body twisting number ( χ ± SD)” value (Kunming breed mice [1]; [14]) was 24.5 ± 9.8. For the same compound, the Pain suppression rate (Kunming breed mice [1]; [14]) was 37.66%, the “Body twisting number ( χ ± SD)” value (Kunming breed mice [1]; [15]) was 23.6 ± 10.9 and the Pain suppression rate (Kunming breed mice [1]; [15]) was 39.95%. For the same compound, the “Body twisting number ( χ ± SD)” value (Kunming breed mice [1]; [16]) was 2.8 ± 4.5, the Pain suppression rate (Kunming breed mice [1]; [16]) was 92.88% and the Pain suppression rate (Kunming breed mice [7]) was 48.0%. The LD50 ([6]; 8.19 mg/kg, 95% of the confidence interval of LD50) was 10.9 to 15 mg/kg, the LD50 ([6]; 8.19 mg/kg, LD50, previous acute toxicology) was 12.8 mg/kg and the LD50 ([6]; LD50) was 12.8 mg/kg. The “dose with no mice dead” value (mice [3]) was 8.19 mg/kg, the “Increasing rate … ( X ± SD)” value (mice [4]; 1 mg/kg stomach perfusion, 15 minutes) was −16.6 ± 31.9% and the “Increasing rate … ( X ± SD)” value (mice [4]; 1 mg/kg stomach perfusion, 30 minutes) was −31.9 ± 24.2%. For the same compound, the “Increasing rate … ( X ± SD)” value (mice [4]; 1 mg/kg stomach perfusion, 60 minutes) was −18.1 ± 34.5%, the “Increasing rate … ( X ± SD)” value (mice [4]; 1 mg/kg stomach perfusion, 90 minutes) was −13.0 ± 14.9% and the “Increasing rate … ( X ± SD)” value (mice [4]; 1 mg/kg stomach perfusion, 120 minutes) was 28.3 ± 56.3%. The “Increasing rate … ( X ± SD)” value (mice [4]; 2 mg/kg stomach perfusion, 15 minutes) was 72.4 ± 57.6 %, the “Increasing rate … ( X ± SD)” value (mice [4]; 2 mg/kg stomach perfusion, 30 minutes) was 36.0 ± 53.4% and the “Increasing rate … ( X ± SD)” value (mice [4]; 2 mg/kg stomach perfusion, 60 minutes) was 17.3 ± 56.1%. For the same compound, the “Increasing rate … ( X ± SD)” value (mice [4]; 2 mg/kg stomach perfusion, 90 minutes) was 15.3 ± 60.1%, the “Increasing rate … ( X ± SD)” value (mice [4]; 2 mg/kg stomach perfusion, 120 minutes) was −13.0 ± 33.1% and the “Increasing rate … ( X ± SD)” value (mice [4]; 4 mg/kg stomach perfusion, 15 minutes) was 142.7 ± 139.4 %. The “Increasing rate … ( X ± SD)” value (mice [4]; 4 mg/kg stomach perfusion, 30 minutes) was 104.1 ± 137.4 %, the “Increasing rate … ( X ± SD)” value (mice [4]; 4 mg/kg stomach perfusion, 60 minutes) was 81.7 ± 100.0 % and the “Increasing rate … ( X ± SD)” value (mice [4]; 4 mg/kg stomach perfusion, 90 minutes) was 34.4 ± 59.3 %. The “Increasing rate … ( X ± SD)” value (mice [4]; 4 mg/kg stomach perfusion, 120 minutes) was 59.1 ± 55.6 %.
In the case of `CCOC(=O)C1(c2ccccc2)CCN(C)CC1` [Pethidine hydrochloride, pethidine hydrochloride, reference compound], the “Body twisting number ( χ ± SD)” value (Kunming breed mice [1]; mouse, in vivo, 40 mg/kg) is reported as 0 ± 0 and the Pain suppression rate (Kunming breed mice [1]; mouse, in vivo, 40 mg/kg, hydrochloride) is reported as 100%.
